Results as given in the supplement of paper PMC10307832.

Columns and labels:
Experiment in all cases: relative viability (nuclei count vs DMSO), 5 days (fraction); higher = more cells survive
KN-93 + Olaparib = compound: CN(C/C=C/C1=CC=C(C=C1)Cl)CC2=CC=CC=C2N(CCO)S(=O)(=O)C3=CC=C(C=C3)OC [KN-93] + O=C(c1cc(Cc2n[nH]c(=O)c3ccccc23)ccc1F)N1CCN(C(=O)C2CC2)CC1 [Olaparib] (partner 8 µM)
In short: (§1)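 Lung cancer cell lines in 1536-well plates were dosed by pin tool the day after seeding, either with one drug alone or with a fixed anchor-drug dose plus five library-drug doses (not always all listed) in √10 steps. After 5 days, cells were fixed and their nuclei stained in one step (final 0.05% Triton X-100, 1% formaldehyde, 1 ug/ml Hoechst), then counted on 4× images. Relative viability is the nuclei count in treated wells divided by that in vehicle wells. Values are medians of duplicate plates.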

KN-93 + Luminespib = compound: CN(C/C=C/C1=CC=C(C=C1)Cl)CC2=CC=CC=C2N(CCO)S(=O)(=O)C3=CC=C(C=C3)OC [KN-93] + CCNC(=O)c1noc(-c2cc(C(C)C)c(O)cc2O)c1-c1ccc(CN2CCOCC2)cc1 [Luminespib] (partner 0.01 µM)
In short: as §1

KN-93 + Palbociclib = compound: CN(C/C=C/C1=CC=C(C=C1)Cl)CC2=CC=CC=C2N(CCO)S(=O)(=O)C3=CC=C(C=C3)OC [KN-93] + CC(=O)c1c(C)c2cnc(Nc3ccc(N4CCNCC4)cn3)nc2n(C2CCCC2)c1=O [Palbociclib] (partner 0.5 µM)
In short: as §1

KN-93 + Linsitinib = compound: CN(C/C=C/C1=CC=C(C=C1)Cl)CC2=CC=CC=C2N(CCO)S(=O)(=O)C3=CC=C(C=C3)OC [KN-93] + C[C@]1(O)C[C@@H](c2nc(-c3ccc4ccc(-c5ccccc5)nc4c3)c3c(N)nccn32)C1 [Linsitinib] (partner 1 µM)
In short: as §1

KN-93 + AZD7762 = compound: CN(C/C=C/C1=CC=C(C=C1)Cl)CC2=CC=CC=C2N(CCO)S(=O)(=O)C3=CC=C(C=C3)OC [KN-93] + NC(=O)Nc1cc(-c2cccc(F)c2)sc1C(=O)N[C@H]1CCCNC1 [AZD7762] (partner 0.2 µM)
In short: as §1

Cell Line	relative viability (KN-93 + Olaparib; first compound 0.08 µM)	relative viability (KN-93 + Olaparib; first compound 0.253 µM)	relative viability (KN-93 + Olaparib; first compound 2.53 µM)	relative viability (KN-93 + Olaparib; first compound 8 µM)	relative viability (KN-93 + Luminespib; first compound 0.08 µM)	relative viability (KN-93 + Luminespib; first compound 0.253 µM)	relative viability (KN-93 + Luminespib; first compound 2.53 µM)	relative viability (KN-93 + Luminespib; first compound 8 µM)	relative viability (KN-93 + Palbociclib; first compound 0.08 µM)	relative viability (KN-93 + Palbociclib; first compound 0.253 µM)	relative viability (KN-93 + Palbociclib; first compound 2.53 µM)	relative viability (KN-93 + Palbociclib; first compound 8 µM)	relative viability (KN-93 + Linsitinib; first compound 0.08 µM)	relative viability (KN-93 + Linsitinib; first compound 0.253 µM)	relative viability (KN-93 + Linsitinib; first compound 2.53 µM)	relative viability (KN-93 + Linsitinib; first compound 8 µM)	relative viability (KN-93 + AZD7762; first compound 0.08 µM)	relative viability (KN-93 + AZD7762; first compound 0.253 µM)	relative viability (KN-93 + AZD7762; first compound 2.53 µM)	relative viability (KN-93 + AZD7762; first compound 8 µM)
NCI-H1975	0.534	0.839	0.826	0.456	0.187	0.241	0.164	0.135	0.475	0.477	0.742	0.193	0.789	0.943	0.992	0.546	0.664	0.599	0.72	0.558
NCI-H1993	0.915	0.947	1.14	0.771	0.677	0.756	0.929	0.638	0.628	0.563	0.595	0.498	0.728	0.633	0.837	0.655	0.608	0.654	0.708	0.586
NCI-H2085	0.741	0.735	0.776	0.6	0.441	0.371	0.441	0.356	0.484	0.427	0.456	0.387	0.782	0.967	0.929	0.633	0.883	1.12	1.06	0.592
NCI-H2087	0.453	0.606	0.653	0.383	0.16	0.182	0.184	0.133	0.228	0.218	0.208	0.175	0.941	0.905	0.824	0.43	0.821	1.61	1.16	1.04
NCI-H2126	0.819	1.08	0.931	0.772	1.03	0.984	0.941	0.708	0.341	0.333	0.362	0.354	0.785	0.673	0.713	0.683	0.939	1.01	1.03	0.974
NCI-H2347	0.491	0.59	0.606	0.497	0.618	0.728	0.458	0.511	0.378	0.44	0.434	0.407	1.07	0.922	0.918	0.797	0.621	0.861	0.885	0.498
NCI-H2405	0.937	0.798	0.916	0.693	0.752	0.76	0.778	0.446	0.561	0.594	0.547	0.471	0.984	0.908	0.924	0.564	0.735	0.859	0.806	0.555
NCI-H3122	0.491	0.571	0.763	0.53	0.0763	0.0918	0.0989	0.0487	0.127	0.181	0.229	0.184	1.08	0.803	1.23	0.882	0.892	1.11	1.12	0.934
PC-3 [JPC-3]	0.929	1.06	1.23	0.956	0.572	0.838	0.632	0.577	0.49	0.476	0.591	0.569	1.02	1.02	0.995	0.876	0.813	0.757	0.781	0.714
PC-14	0.252	0.195	0.252	0.218	0.151	0.154	0.13	0.138	0.483	0.607	0.751	0.35	0.855	0.976	1.07	0.824	0.331	0.316	0.527	0.343
RERF-LC-KJ	0.938	0.97	0.836	0.545	1.21	1.51	1.16	0.559	1.03	1	1.16	0.8	0.82	0.82	0.967	0.611	0.707	0.898	1	0.753
